In the series the test system is complementary 10-mer DNA. The series can be described thus: Tm of 10-mer model PNA with complementary 10-mer DNA. In kind it is binding. The note with it: for Tm: 4 μM PNA and 4 μM complementary 10-mer DNA, aqueous buffer pH 7.16, uncorrected; for ΔTm (Tm value - Tm value of PNA 10-1): complementary 10-mer DNA. The method, then:
The 10-mer PNA oligomers in Table 12 were evaluated for their binding affinity for the complementary 10-mer RNA or DNA by measuring Tm values as described below.
A mixed solution of 4 μM 10-mer PNA oligomer and 4 μM complementary 10-mer DNA or RNA in 4 mL aqueous buffer (pH 7.16, 10 mM sodium phosphate, 100 mM NaCl) in 15 mL polypropylene falcon tube was incubated at 90° C. for a minute and slowly cooled down to ambient temperature. Then the solution was transferred into a 4 mL quartz UV cuvette, and subjected to Tm measurement at 260 nm on a UV/Visible spectrophotometer as described in the prior art [PCT/KR2009/001256] or with minor modifications. The DNA and RNA for Tm measurement were purchased from Bioneer (www.bioneer.com, Dajeon, Republic of Korea) and used without further purification.

[C(1O2)] = modified PNA monomer acting as cytosine, C(pOq) type, 1O2; [A(5)] = modified PNA monomer acting as adenine, A(p) type, p=5; [G(5)] = modified PNA monomer acting as guanine, G(p) type, p=5; {Fmoc} = N-terminal Fmoc cap; {NH2} = C-terminal amide

Take “Fmoc-GTA(5)-GAT-CA(5)C-T-NH2 (GTAGATCACT; all peptide nucleic acid (PNA), [A(5)] at 3, 8, 5' {Fmoc}, 3' {NH2}; model 10-mer peptide nucleic acid written N to C) [PNA 10-3]”: the Tm was determined as 61 °C and the “ΔTm (Tm value - Tm value of PNA 10-1)” value was “+10 °C”.

For “Fmoc-GTA-G(5)AT-CAC-T-NH2 (GTAGATCACT; all peptide nucleic acid (PNA), [G(5)] at 4, 5' {Fmoc}, 3' {NH2}; model 10-mer peptide nucleic acid written N to C) [PNA 10-5]”, the Tm amounted to 53 °C and the “ΔTm (Tm value - Tm value of PNA 10-1)” value is “+2 °C”.

On to “Fmoc-GTA-GA(5)T-CAC-T-NH2 (GTAGATCACT; all peptide nucleic acid (PNA), [A(5)] at 5, 5' {Fmoc}, 3' {NH2}; model 10-mer peptide nucleic acid written N to C) [PNA 10-2]”, for which the Tm worked out at 55 °C and the “ΔTm (Tm value - Tm value of PNA 10-1)” value is “+4 °C”.

Turning to “Fmoc-GTA-GAT-C(1O2)AC-T-NH2 (GTAGATCACT; all peptide nucleic acid (PNA), [C(1O2)] at 7, 5' {Fmoc}, 3' {NH2}; model 10-mer peptide nucleic acid written N to C) [PNA 10-6]”, the Tm was determined as 59 °C and the “ΔTm (Tm value - Tm value of PNA 10-1)” value was “+8 °C”.

Source of the values: patent US12624068B2, “Exon skipping by peptide nucleic acid derivatives” (OliPass Corporation, priority 2016, dated 2026).
